Data from patent publication US20230125052A1, “RED BLOOD CELL-DERIVED VESICLE” (Imperial College Innovations Limited, priority 2019, published 2023).
Square brackets hold non-standard residues; d marks the D form. Side chains are listed from the residue outwards. Ends that are not written are not given here. maleimidomethyl‑cyclohexane‑carboxamide = linker coupling the Cys to DSPE; DSPE = DSPE lipid anchoring the peptide in the vesicle membrane

Experiments:
[1] = tested on: ADP-induced platelet aggregation; assay: In vitro antiplatelet aggregation assay, ADP-induced; assay type: cell-based, sheep; conditions: Ovis aries, equivalent ASA concentration of 0.1 mM, read-out: Percentage of inhibition of ADP-induced platelet aggregation
Protocol: (§1) The final platelet count was adjusted to 2 × 10^8 platelets/mL. 150 µL of PRP was seeded in 96-well plates and was incubated with 50 µL of various formulations: ASA-RBCVs, ASA-RGD-RBCVs, ASA-cRGD-PEG-RBCVs or ASA (equivalent ASA concentration of 0.1 mM) in the presence of 10 µL platelet agonist thrombin in PBS (4 µM), arachidonic acid (AA) in PBS (400 µM) or adenosine diphosphate (ADP) in PBS (15 µM). After incubation under shaking at 37° C. for 40 min, the absorbance at 595 nm was measured by a GloMax-Multi Microplate Multimode Reader (Promega, USA). The aggregation percentage was calculated by the equation 2. From the platelet aggregation percentage and comparison to aggregation of PBS without samples, the inhibition percentage was calculated by the equation 3.

[2] = tested on: AA-induced platelet aggregation; assay: In vitro antiplatelet aggregation assay, arachidonic acid (AA)-induced; assay type: cell-based, sheep; conditions: Ovis aries, equivalent ASA concentration of 0.1 mM, read-out: Percentage of inhibition of AA-induced platelet aggregation
Protocol: as §1

[3] = tested on: thrombin-induced platelet aggregation; assay: In vitro antiplatelet aggregation assay, thrombin-induced; assay type: cell-based, sheep; conditions: Ovis aries, equivalent ASA concentration of 0.1 mM, read-out: Percentage of inhibition of thrombin-induced platelet aggregation
Protocol: as §1

[4] = tested on: thrombin-induced thrombus in sheep blood; assay: In vitro antithrombotic assay (wet thrombus weight); assay type: cell-based; conditions: equivalent ASA 0.1 mM, 37° C., 30 min
Protocol: 200 µL of sheep blood was added into a weighted tube. Then, 50 µL specific formulation (PBS, ASA-RBCVs, ASA-RGD-RBCVs, ASA-cRGD-PEG-RBCVs or ASA at an equivalent ASA concentration of 0.1 mM) was added in the tube, and then 10 µL of thrombin in PBS (4 µM) was added in each well and incubated at 37° C. under shaking for 30 min. Finally, the un-clotted blood was removed to obtain the weight of the wet clotted thrombus.

[5] = tested on: fibrinogen mediated platelet aggregation in platelet-rich plasma (active αIIbβ3); assay type: cell-based, sheep
Protocol: Binding affinity of free liner RGD or cRGD peptides to activated platelets can be indicated by a half maximal inhibitory concentration (IC50) value, which is the peptide concentration required to inhibit fibrinogen mediated platelet aggregation in platelet-rich plasma (PRP) by 50%. PRP was incubated with various concentrations of liner RGD or cRGD peptides in the presence of platelet agonist, thrombin (4 µM) for 30 min under stirring. The platelet aggregation percentage was determined with a GloMax-Multi Microplate Multimode Reader (Promega, USA) by measuring the absorbance at 595 nm. The platelet aggregation percentage was calculated by the following equation: […]
where Ao is the initial absorbance at 595 nm, and At is the absorbance at 595 nm after incubation.
The percentage platelet aggregation inhibition was calculated by the following equation: […]
where PAPBS is the platelet aggregation in the PRP control in the presence of thrombin and PBS only (no peptides), and PAs is the platelet aggregation in the PRP sample in the presence of thrombin and peptides.

[6] = target: active GPIIb-IIIa (αIIbβ3) integrin on thrombin-activated platelets (sheep); assay: cell-based or functional assay
fibrin clot = assay: Fibrin clot lysis, agar plate assay, in the presence of activated platelets; assay type: biochemical; conditions: equivalent tPA 1 mg mL^-1, 37° C. overnight, activated platelets present
Protocol: Fibrin clot lysis by the tPA-loaded vesicles was measured by an agar plate assay. Briefly, 300 mg agar was dissolved in buffer mixture (15 mL of 0.05 M Tris-HCl buffer at pH 7.2 and 5 mL of 0.025 M CaCl2 solution). 50 mg Fibrinogen was dissolved in 10 mL of Tris-HCl buffer (0.05 M, pH 7.2). The agar solution was mixed with the fibrinogen solution, and then 10 µL thrombin (4.0 µM) was added under stirring for 1 min. The resulting mixture was spread carefully on a transparent plastic plate and homogeneous gels were obtained at 37° C. after 3h. […] were created in each plate and 5 µL of plasminogen solution (1 mg mL^-1) was then added into each sample well. PBS buffer, tPA-RBCVs, tPA-RGD-RBCVs, tPA-cRGD-PEG-RBCVs and free tPA (equivalent tPA dose of 1 mg mL^-1) were added into respective sample wells and incubated at 37° C. overnight. The area of the lysed zone in each well was measured to evaluate the degree of fibrin clot lysis.

Halo blood clots = assay: Blood clot lysis in a Halo blood clot model; assay type: cell-based, sheep; conditions: after 45 min of treatment
Protocol: Briefly, a clotting mixture (5 mL of buffer containing 66 mM Tris-HCl, 130 mM NaCl and 45 mM CaCl2; 5 µL of 1 µM thrombin, pH 7.4) was freshly prepared. In a 96-well microplate, 5 µL of this clotting mixture was placed on one side of the well bottom, then 15 µL of whole blood was added on the opposite side of the well bottom. Clotting was initiated by mixing the two drops with a pipette tip in a circular motion to form a homogenous halo shape of blood around the edge of the well bottom, leaving the centre area empty. The plate was covered and incubated at 37° C. for 30 min. After clot formation, 80 µL tPA-RBCVs, tPA-RGD-RBCVs, tPA-cRGD-PEG-RBCVs and free tPA (equivalent tPA dose of 1 mg mL^-1) were added simultaneously into respective wells containing halo clots. The dissolution of the halo clots was determined with a plate reader GloMax-Multi Microplate Multimode Reader (Promega, USA) by measuring absorbance at 495 nm caused by RBCs progressively covering the centre of the well after clot degradation at 37° C. […] The percentage of clot dissolution was calculated according to the following equation: […]
where As is the absorbance of well at 495 nm after incubation with samples; An is the absorbance of negative control well at 495 nm; Ap is the absorbance of positive control well at 495 nm.

[7] = in circulation, background; cited from earlier work
[8] = target: T1, active GPIIb-IIIa (αIIbβ3) integrin on thrombin-activated platelets (sheep, UniProt A0ACI6RZ73 32-1033; A0ACI6S117 125-886); assay: cell-based or functional assay
[9] = target: T1, active GPIIb-IIIa (αIIbβ3) integrin on …; assay: flow cytometry on thrombin-activated platelets; reference is uncoated RBCVs
Protocol: (§2) 2 mL platelets (1.0 × 10⁸ mL⁻¹) were seeded in 6-well plates and activated by incubation with 100 µL thrombin (1 U/mL) for at least 20 min. Inactivated platelets or thrombin-activated platelets were incubated with various NBD-labelled RBCV formulations (equivalent NBD-PE of 1.0 × 10⁻⁷ mol). Free vesicles, which were not attached to platelets, were removed by centrifugation. Data for 1.0 × 10⁴ gated events were collected and analysed using a BD Fortessa II flow cytometer.

[10] = target: T1, active GPIIb-IIIa (αIIbβ3) integrin on …; assay: MFI of confocal images of thrombin-activated platelets; reference is uncoated RBCVs
[11] = target: T1, active GPIIb-IIIa (αIIbβ3) integrin on …; assay: flow cytometry on thrombin-activated platelets; reference is uncoated tPA-RBCVs
Protocol: as §2, with “FITC-labelled tPA-loaded vesicle” for “NBD-labelled RBCV”, “tPA concentration” for “NBD-PE”, “0.2 mg mL⁻¹).” for “1.0 × 10⁻⁷ mol).”

[12] = target: T1, active GPIIb-IIIa (αIIbβ3) integrin on …; assay: MFI of confocal images of thrombin-activated platelets; reference is uncoated tPA-RBCVs
Protocol: 2 mL platelets (1.0 × 10⁸ mL⁻¹) were seeded in 6-well plates, with a collagen-coated glass coverslip on the bottom of each well. After 30 min, 100 µL thrombin (1 U/mL) was added onto the platelet-adhered coverslips to ensure activation of platelets at least 20 min. Inactivated platelets or thrombin-activated platelets were incubated with various FITC-labelled tPA-loaded vesicle formulations (equivalent tPA concentration of 0.2 mg mL⁻¹). The platelets were then fixed with 4.0% formaldehyde for 30 min, followed by rinsing with pH 7.4 PBS buffer for three times. Subsequently, the resulting slides were mounted and observed with a Leica SP₅ MP confocal microscope.

T1 sequence (chain, as listed by the source, chain 1 of 2): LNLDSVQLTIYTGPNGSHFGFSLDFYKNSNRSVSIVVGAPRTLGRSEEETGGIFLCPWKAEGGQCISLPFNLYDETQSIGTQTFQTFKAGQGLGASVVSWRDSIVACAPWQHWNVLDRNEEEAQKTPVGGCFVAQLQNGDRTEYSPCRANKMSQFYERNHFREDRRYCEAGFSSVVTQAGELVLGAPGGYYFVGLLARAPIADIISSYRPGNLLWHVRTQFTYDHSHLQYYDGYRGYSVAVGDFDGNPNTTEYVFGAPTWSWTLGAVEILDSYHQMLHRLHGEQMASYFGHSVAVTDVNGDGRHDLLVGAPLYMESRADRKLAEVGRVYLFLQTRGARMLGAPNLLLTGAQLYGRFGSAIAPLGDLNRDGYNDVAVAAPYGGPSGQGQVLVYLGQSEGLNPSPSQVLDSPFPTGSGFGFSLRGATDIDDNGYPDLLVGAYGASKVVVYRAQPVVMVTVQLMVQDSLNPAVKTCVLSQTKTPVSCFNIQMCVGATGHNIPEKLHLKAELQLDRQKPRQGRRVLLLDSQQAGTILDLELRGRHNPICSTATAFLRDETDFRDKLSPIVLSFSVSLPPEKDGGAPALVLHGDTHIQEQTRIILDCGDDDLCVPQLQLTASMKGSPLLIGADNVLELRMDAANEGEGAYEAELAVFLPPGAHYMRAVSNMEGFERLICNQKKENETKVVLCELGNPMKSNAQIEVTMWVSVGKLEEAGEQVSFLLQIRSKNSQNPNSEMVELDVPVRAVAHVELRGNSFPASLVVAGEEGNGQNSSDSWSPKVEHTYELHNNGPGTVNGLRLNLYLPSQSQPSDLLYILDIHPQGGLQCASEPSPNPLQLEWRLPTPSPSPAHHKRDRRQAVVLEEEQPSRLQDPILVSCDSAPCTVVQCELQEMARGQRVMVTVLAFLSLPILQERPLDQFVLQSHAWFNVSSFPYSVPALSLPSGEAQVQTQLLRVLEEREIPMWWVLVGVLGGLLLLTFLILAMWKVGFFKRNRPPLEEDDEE
T1 sequence (chain, as listed by the source, chain 2 of 2): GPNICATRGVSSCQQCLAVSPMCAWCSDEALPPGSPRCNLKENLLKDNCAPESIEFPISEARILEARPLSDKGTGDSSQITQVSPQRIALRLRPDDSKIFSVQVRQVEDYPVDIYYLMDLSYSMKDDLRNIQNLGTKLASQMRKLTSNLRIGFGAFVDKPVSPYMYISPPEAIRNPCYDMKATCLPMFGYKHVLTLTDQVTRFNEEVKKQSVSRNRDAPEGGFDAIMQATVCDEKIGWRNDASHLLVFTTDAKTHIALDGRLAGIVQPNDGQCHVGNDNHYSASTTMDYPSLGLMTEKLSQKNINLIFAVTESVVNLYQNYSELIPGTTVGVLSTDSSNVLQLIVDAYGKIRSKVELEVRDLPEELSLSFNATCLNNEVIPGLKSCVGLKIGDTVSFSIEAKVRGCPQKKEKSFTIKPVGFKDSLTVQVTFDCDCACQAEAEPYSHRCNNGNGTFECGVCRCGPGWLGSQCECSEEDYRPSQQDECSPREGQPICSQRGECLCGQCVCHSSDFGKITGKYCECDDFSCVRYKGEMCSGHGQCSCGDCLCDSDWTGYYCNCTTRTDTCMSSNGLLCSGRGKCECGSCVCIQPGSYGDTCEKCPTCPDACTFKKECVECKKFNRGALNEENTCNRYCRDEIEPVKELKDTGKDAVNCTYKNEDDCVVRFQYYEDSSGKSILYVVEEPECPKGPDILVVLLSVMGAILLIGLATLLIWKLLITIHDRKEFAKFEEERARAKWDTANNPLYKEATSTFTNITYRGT
Sequence of active GPIIb-IIIa (αIIbβ3) integrin on thrombin-activated platelets (sheep) (chain, as listed by the source, chain 1 of 2): as the sequence (chain, as listed by the source, chain 1 of 2) above
Sequence of active GPIIb-IIIa (αIIbβ3) integrin on thrombin-activated platelets (sheep) (chain, as listed by the source, chain 2 of 2): as the sequence (chain, as listed by the source, chain 2 of 2) above

## CC(=O)Oc1ccccc1C(=O)O [ASA, acetylsalicylic acid]
[1]
  inhibition at 100 µM: 27.6 ± 2.71%
[2]
  inhibition at 100 µM: 23.8 ± 4.26%
[3]
  inhibition at 100 µM: 20.5 ± 1.04%
[4]
  Thrombus weight: 49.27 ± 10.73 mg

## CC(C)[C@@H]1NC(=O)[C@@H](Cc2ccccc2)NC(=O)[C@H](CC(=O)O)NC(=O)CNC(=O)[C@H](CCCNC(=N)N)NC1=O [cRGD, cyclo(Arg-Gly-Asp-d-Phe-Val)]
[5]
  IC50: 460 µM

## linear RGD peptide (Arg-Gly-Asp), free
[6]
  IC50 (peptide concentration for 50% inhibition of fibrinogen-mediated platelet aggregation in PRP, thrombin 4 µM): 382 µM

## tPA: Tissue plasminogen activator (tPA, alteplase), product of Boehringer Ingelheim
Fibrin clot
  Area of fibrin lysis ring: 1.18 ± 0.17 cm^2
Halo blood clots
  Blood clot lysis (in words): complete blood clot lysis
[7]
  Half-life: 2~6 min

## cyclo(RGD[dF]V) [cyclo(Arg-Gly-Asp-d-Phe-Val), free]
[8]
  IC50 (peptide concentration for 50% inhibition of fibrinogen-mediated platelet aggregation in PRP, thrombin 4 µM): 460 µM

B1: RGD-coated red blood cell-derived vesicles without drug (RGD-RBCVs) (other)
peptide: C([maleimidomethyl‑cyclohexane‑carboxamide-DSPE])RGD
notes: Vesicle labelled with NBD-PE for flow cytometry and CLSM, or with NBD-PE and Rhod-PE for FRET; also called NBD-labelled RGD-RBCVs
[9]
  fold increase in fluorescence intensity against NBD-labelled RBCVs: > 4 fold
[10]
  fold enhancement in binding affinity (MFI) against RBCVs: ~4 fold

B2: tPA-loaded, RGD-coated red blood cell-derived vesicles (tPA-RGD-RBCVs) (other)
peptide: C([maleimidomethyl‑cyclohexane‑carboxamide-DSPE])RGD
modifications: also: many copies anchored in red blood cell-derived vesicle membrane, tPA encapsulated
notes: also called FITC-labelled tPA-RGD-RBCVs; fibrinogen-mimicking RBCV
[11]
  fold increase in fluorescence intensity against FITC-labelled tPA-RBCVs: > 4 fold
[12]
  fold enhancement in binding affinity (MFI) against tPA-RBCVs: ~4 fold
